From PubChem BioAssay AID256 (DTP/NCI, 2004)
Where “and” joins values, the source holds several entries; their conditions need not be identical. Identical values can stand only once. Toxic doses and inconclusive results are not listed. Rule for the calls: active = survival T/C of 150% or more; inactive = T/C below 125% in these data.

Tested on: CD2F1 mice, L1210 leukemia ip, survival T/C
Test: NCI In Vivo Anticancer Drug Screen. Data for tumor model L1210 Leukemia (intraperitoneal) in CD2F1 (CDF1) mice
Details: higher = longer survival
Summary of the method: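 In this screen, transplantable tumors were grown in mice given either the compound or its vehicle. Results were expressed as the treated measurement relative to the control measurement.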

[1] = endpoint: mean survival time, dose: 100.0 mg/kg/injection, schedule: Q01DX009 (ip), vehicle: saline with Tween-80
[2] = endpoint: mean survival time, dose: 100.0 mg/kg/injection, schedule: Q04DX003 (ip), vehicle: saline with Tween-80
[3] = endpoint: mean survival time, dose: 200.0 mg/kg/injection, schedule: Q01DX009 (ip), vehicle: saline with Tween-80
[4] = endpoint: mean survival time, dose: 200.0 mg/kg/injection, schedule: Q04DX003 (ip), vehicle: saline with Tween-80
[5] = endpoint: mean survival time, dose: 400.0 mg/kg/injection, schedule: Q01DX009 (ip), vehicle: saline with Tween-80
[6] = endpoint: mean survival time, dose: 400.0 mg/kg/injection, schedule: Q04DX003 (ip), vehicle: saline with Tween-80
[7] = endpoint: mean survival time, dose: 100.0 mg/kg/injection, schedule: Q04DX003 (ip), vehicle: saline
[8] = endpoint: mean survival time, dose: 200.0 mg/kg/injection, schedule: Q04DX003 (ip), vehicle: saline
[9] = endpoint: mean survival time, dose: 400.0 mg/kg/injection, schedule: Q04DX003 (ip), vehicle: saline
[10] = endpoint: mean survival time, dose: 100.0 mg/kg/injection, schedule: Q04DX003 (ip), vehicle: other
[11] = endpoint: mean survival time, dose: 200.0 mg/kg/injection, schedule: Q04DX003 (ip), vehicle: other
[12] = endpoint: mean survival time, dose: 400.0 mg/kg/injection, schedule: Q04DX003 (ip), vehicle: other
[13] = endpoint: mean survival time, dose: 100.0 mg/kg/injection, schedule: Q01DX001 (ip), vehicle: saline with Tween-80
[14] = endpoint: mean survival time, dose: 200.0 mg/kg/injection, schedule: Q01DX001 (ip), vehicle: saline with Tween-80
[15] = endpoint: mean survival time, dose: 400.0 mg/kg/injection, schedule: Q01DX001 (ip), vehicle: saline with Tween-80

Measured: T/C

COc1cc2c(cc1OC)C(Cc1ccc3cc(OC)c(OC)cc3c1)=NCC2
inactive: [1] 93 % of control | [2] 87 % of control | [3] 101 % of control | [4] 89 % of control | [5] 110 % of control | [6] 101 % of control

O=CNCCO
inactive: [1] 98 % of control | [7] 113 % of control | [3] 94 % of control | [8] 108 % of control | [5] 93 % of control | [9] 110 % of control

CCC(=O)c1cc(OC)cc(OC)c1
inactive: [7] 100 % of control | [8] 101 % of control | [9] 103 % of control

CCNc1ncc2ccccc2c1-c1ccc(NCCCl)cc1
inactive: endpoint: mean survival time, dose: 25.0 mg/kg/injection, schedule: Q04DX003 (ip), vehicle: other 98 % of control | endpoint: mean survival time, dose: 50.0 mg/kg/injection, schedule: Q04DX003 (ip), vehicle: other 95 % of control | [10] 87 % of control | [11] 105 % of control | [12] 90 % of control

Cc1ccc2c(c1)N(CCCN(C)C)c1ccccc1S2
inactive: endpoint: mean survival time, dose: 22.0 mg/kg/injection, schedule: Q04DX003 (ip), vehicle: saline 105 % of control | endpoint: mean survival time, dose: 33.0 mg/kg/injection, schedule: Q04DX003 (ip), vehicle: saline 97 % of control | endpoint: mean survival time, dose: 50.0 mg/kg/injection, schedule: Q04DX003 (ip), vehicle: saline 105 % of control | endpoint: mean survival time, dose: 75.0 mg/kg/injection, schedule: Q04DX003 (ip), vehicle: saline 103 % of control

Nc1ccc(NC(=S)Nc2ccc(N)cc2)cc1
inactive: endpoint: mean survival time, dose: 25.0 mg/kg/injection, schedule: Q04DX003 (ip), vehicle: Klucel (hydroxypropylcellulose) (HPC) 104 % of control | endpoint: mean survival time, dose: 50.0 mg/kg/injection, schedule: Q04DX003 (ip), vehicle: Klucel (hydroxypropylcellulose) (HPC) 106 % of control | endpoint: mean survival time, dose: 100.0 mg/kg/injection, schedule: Q04DX003 (ip), vehicle: Klucel (hydroxypropylcellulose) (HPC) 98 % of control

Nc1ncnc2nc(C3COCCO3)[nH]c12 (stereo unspecified)
inactive: endpoint: mean survival time, dose: 12.5 mg/kg/injection, schedule: Q01DX005 (ip), vehicle: distilled water + Tween-80 90 % of control | endpoint: mean survival time, dose: 25.0 mg/kg/injection, schedule: Q01DX005 (ip), vehicle: distilled water + Tween-80 94 % of control | endpoint: mean survival time, dose: 50.0 mg/kg/injection, schedule: Q01DX005 (ip), vehicle: distilled water + Tween-80 94 % of control | endpoint: mean survival time, dose: 100.0 mg/kg/injection, schedule: Q01DX005 (ip), vehicle: distilled water + Tween-80 96 % of control | endpoint: mean survival time, dose: 200.0 mg/kg/injection, schedule: Q01DX005 (ip), vehicle: distilled water + Tween-80 104 % of control

Cc1ccc2c(c1)C1(SC(C)C(=O)N1c1ccc(Cl)cc1)C(=O)N2 (stereo unspecified)
inactive: endpoint: median survival time, dose: 25.0 mg/kg/injection, schedule: Q01DX005 (ip), vehicle: saline with Tween-80 107 % of control | endpoint: median survival time, dose: 50.0 mg/kg/injection, schedule: Q01DX005 (ip), vehicle: saline with Tween-80 113 % of control | endpoint: median survival time, dose: 100.0 mg/kg/injection, schedule: Q01DX005 (ip), vehicle: saline with Tween-80 116 % of control | endpoint: median survival time, dose: 200.0 mg/kg/injection, schedule: Q01DX005 (ip), vehicle: saline with Tween-80 116 % of control | endpoint: median survival time, dose: 400.0 mg/kg/injection, schedule: Q01DX005 (ip), vehicle: saline with Tween-80 123 % of control

COc1c(C)ccc([N+](=O)[O-])c1OC
inactive: [1] 97 % of control | [3] 98 % of control | [5] 98 % of control

C=CCCCC[P+](c1ccccc1)(c1ccccc1)c1ccccc1
inactive: endpoint: mean survival time, dose: 3.0 mg/kg/injection, schedule: Q01DX015 (ip), vehicle: saline 97 % of control | endpoint: mean survival time, dose: 12.0 mg/kg/injection, schedule: Q01DX015 (ip), vehicle: saline 100 % of control | endpoint: mean survival time, dose: 24.0 mg/kg/injection, schedule: Q01DX015 (ip), vehicle: saline 97 % of control

C1CCC(NC2=NCCO2)CC1
inactive: [2] 90 % of control

O=C(O)c1cccnc1Cl
inactive: endpoint: mean survival time, dose: 75.0 mg/kg/injection, schedule: Q01DX009 (ip), vehicle: Klucel (hydroxypropylcellulose) (HPC) 111 % of control | endpoint: mean survival time, dose: 150.0 mg/kg/injection, schedule: Q01DX009 (ip), vehicle: Klucel (hydroxypropylcellulose) (HPC) 94 % of control

O=C(CNC(=O)NCc1ccco1)N/N=C/c1cccc([N+](=O)[O-])c1
inactive: endpoint: mean survival time, dose: 50.0 mg/kg/injection, schedule: Q01DX009 (ip), vehicle: saline with Tween-80 92 % of control | [1] 88 % of control | [3] 103 % of control

N#CCC(=O)OCCCCOC(=O)CC#N
inactive: [1] 96 % of control | [2] 103 % of control | [3] 97 % of control | [4] 97 % of control | [5] 96 % of control | [6] 100 % of control

NC1CC[N-]CC1.NC1CC[N-]CC1.NC1CC[N-]CC1.NC1CC[N-]CC1.[Cl][Rh][Cl]
inactive: endpoint: mean survival time, dose: 6.25 mg/kg/injection, schedule: Q04DX003 (ip), vehicle: saline with Tween-80 98 % of control | endpoint: mean survival time, dose: 12.5 mg/kg/injection, schedule: Q04DX003 (ip), vehicle: saline with Tween-80 101 % of control | endpoint: mean survival time, dose: 25.0 mg/kg/injection, schedule: Q04DX003 (ip), vehicle: saline with Tween-80 95 % of control

CNc1c2c(nc3ccccc13)CCCC2
inactive: endpoint: mean survival time, dose: 5.0 mg/kg/injection, schedule: Q04DX003 (ip), vehicle: saline with Tween-80 96 % of control

CCOP(=O)(OCC)C1=C(SCC)C(F)(F)C(F)(F)C1(F)F
inactive: endpoint: mean survival time, dose: 75.0 mg/kg/injection, schedule: Q01DX001 (ip), vehicle: other 104 % of control

Cc1ccc(S(=O)(=O)N/N=C/c2ccc(Cl)s2)cc1
inactive: [13] 94 % of control | [14] 97 % of control | [15] 97 % of control

Cc1c2ccccc2c(CN(C)CC(=O)O)c2ccccc12
inactive: [2] 102 % of control | [4] 102 % of control

CCCCCCCCCCCCCCCC[N+](C)(C)C
inactive: endpoint: mean survival time, dose: 1.25 mg/kg/injection, schedule: Q01DX009 (ip), vehicle: saline with Tween-80 96 % of control | endpoint: mean survival time, dose: 2.5 mg/kg/injection, schedule: Q01DX009 (ip), vehicle: saline with Tween-80 98 % of control | endpoint: mean survival time, dose: 5.0 mg/kg/injection, schedule: Q01DX009 (ip), vehicle: saline with Tween-80 94 % of control and 97 % of control | endpoint: mean survival time, dose: 5.0 mg/kg/injection, schedule: Q04DX003 (ip), vehicle: saline 96 % of control | endpoint: mean survival time, dose: 10.0 mg/kg/injection, schedule: Q04DX003 (ip), vehicle: saline 98 % of control | endpoint: mean survival time, dose: 20.0 mg/kg/injection, schedule: Q04DX003 (ip), vehicle: saline 95 % of control

Nc1ncnc2c1ncn2[C@@H](/C=N\O)O[C@@H](/C=N\O)CO
inactive: endpoint: median survival time, dose: 12.5 mg/kg/injection, schedule: Q01DX005 (ip), vehicle: water 100 % of control | endpoint: median survival time, dose: 25.0 mg/kg/injection, schedule: Q01DX005 (ip), vehicle: water 96 % of control | endpoint: median survival time, dose: 50.0 mg/kg/injection, schedule: Q01DX005 (ip), vehicle: water 103 % of control | endpoint: median survival time, dose: 100.0 mg/kg/injection, schedule: Q01DX005 (ip), vehicle: water 97 % of control | endpoint: median survival time, dose: 200.0 mg/kg/injection, schedule: Q01DX005 (ip), vehicle: water 90 % of control

OC(c1ccccc1)c1ccccn1 (stereo unspecified)
inactive: [10] 93 % of control | [11] 98 % of control | [12] 98 % of control

O=CC(=O)c1ccc(O)cc1
inactive: endpoint: mean survival time, dose: 6.25 mg/kg/injection, schedule: Q01DX009 (ip), vehicle: saline 101 % of control | endpoint: mean survival time, dose: 12.5 mg/kg/injection, schedule: Q01DX009 (ip), vehicle: saline 97 % of control | endpoint: mean survival time, dose: 25.0 mg/kg/injection, schedule: Q01DX009 (ip), vehicle: saline 100 % of control | endpoint: mean survival time, dose: 50.0 mg/kg/injection, schedule: Q01DX009 (ip), vehicle: saline 103 % of control | endpoint: mean survival time, dose: 100.0 mg/kg/injection, schedule: Q01DX009 (ip), vehicle: saline 108 % of control

O=c1[nH]cnc2snc(Cl)c12
inactive: [13] 101 % of control | endpoint: mean survival time, dose: 100.0 mg/kg/injection, schedule: Q04DX002 (ip), vehicle: saline with Tween-80 92 % of control | [14] 101 % of control | endpoint: mean survival time, dose: 200.0 mg/kg/injection, schedule: Q04DX002 (ip), vehicle: saline with Tween-80 92 % of control | [15] 100 % of control | endpoint: mean survival time, dose: 400.0 mg/kg/injection, schedule: Q04DX002 (ip), vehicle: saline with Tween-80 87 % of control

CCOC(OCC)c1cc(=O)[nH]c(NC(C)=O)n1
inactive: endpoint: mean survival time, dose: 100.0 mg/kg/injection, schedule: Q01DX001 (ip), vehicle: saline 95 % of control | endpoint: mean survival time, dose: 200.0 mg/kg/injection, schedule: Q01DX001 (ip), vehicle: saline 103 % of control | endpoint: mean survival time, dose: 400.0 mg/kg/injection, schedule: Q01DX001 (ip), vehicle: saline 95 % of control

COc1cc(CCl)ccc1OCc1ccccc1
inactive: [10] 98 % of control | [11] 98 % of control | [12] 109 % of control
